Experimental data from patent US20260285853A1, “COMPOUNDS AND METHODS FOR MODULATING SPLICING” (REMIX THERAPEUTICS INC., priority 2023, published 2026).
Like-named read-outs stand apart in the source and are kept apart here.

Columns and labels:
Assay type in all cases: cell-based
MYB mRNA [1] = test: Splicing RT-qPCR assay (THP), Table 2A
[2] = tested on: SH-SY5Y (human neuroblastoma) cells; test: Cell viability, Cell Titer Glo 2.0 assay; details: read-out: Viability SHSY5Y.3 GI50
How it was run: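 CellTiter-Glo 2.0 luminescence read-out after 72 h compound exposure (37 °C, 5% CO2); medium-only wells as blank. DMSO 0.1% final.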

HTT mRNA [3] = test: Splicing RT-qPCR assay (THP), Table 2A
HTT mRNA [4] = test: Gene panel canonical junction qPCR assay, decrease in CJ mRNA, Table 3
How it was run: (§1)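 Cells: A673 or K562; 24 h compound exposure, 37 °C, 5% CO2; 11-pt 3-fold series from 10 uM final; DMSO ≤0.25%. Lysate → cDNA → qPCR with junction-spanning primers/probe for CJ transcript. ΔCt vs housekeeper, ΔΔCt vs DMSO, 2^(−ΔΔCt), % response, 4PL → IC50.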

MYB mRNA [5] = test: as above
How it was run: as §1

[6] = Table 2A (THP), AJ mRNA increase, read-out: MYB AJ (increase in alternative junction mRNA, AC50)
[7] = Table 2A (THP), CJ mRNA decrease, read-out: MYB CJ (decrease in canonical junction mRNA, IC50)
[8] = Table 2A (THP), AJ mRNA increase, read-out: HTT AJ (increase in alternative junction mRNA, AC50)
[9] = Table 2A (THP), CJ mRNA decrease, read-out: HTT CJ (decrease in canonical junction mRNA, IC50)
[10] = decrease in canonical junction (CJ) mRNA, gene panel qPCR, Table 3
[11] = Table 2A, THP, MYB alternative junction (AJ) mRNA, read-out: MYB AJ (AC50, increase in alternative junction mRNA)
[12] = Table 2A, THP, MYB canonical junction (CJ) mRNA, read-out: MYB CJ (IC50, decrease in canonical junction mRNA)
[13] = Table 2A, THP, HTT alternative junction (AJ) mRNA, read-out: HTT AJ (AC50, increase in alternative junction mRNA)
[14] = Table 2A, THP, HTT canonical junction (CJ) mRNA, read-out: HTT CJ (IC50, decrease in canonical junction mRNA)
[15] = decrease in CJ mRNA levels, canonical junction qPCR, gene panel

COc1nc2nccn2cc1NC(=O)c1ccc(N2CCC(NC3CC3)CC2)c2cn(C)nc12 [Compound 598, 4-[4-(cyclopropylamino)-1-piperidyl]-N-(7-methoxy-imidazo[1,2-a]pyrimidin-6-yl)-2-methyl-indazole-7-carboxamide]
> 10 µM: AC50 (HTT mRNA [3]; [8]) | IC50 (HTT mRNA [3]; [9]) | IC50 (HTT mRNA [4]; [10])
1 to 10 µM: AC50 (MYB mRNA [1]; [6]) | IC50 (MYB mRNA [1]; [7]) | GI50 [2] | IC50 (MYB mRNA [5]; [10])

COc1nc2c(C(=O)Nc3cn4c(C)nc(C)cc4n3)ccc(N3C[C@H](C)N[C@@H](C)C3)c2s1 [Compound 782, N-(5,7-dimethylimidazo[1,2-c]pyrimidin-2-yl)-7-[(3S,5S)-3,5-dimethylpiperazin-1-yl]-2-methoxy-1,3-benzothiazole-4-carboxamide]
0.1 to 1 µM: AC50 (MYB mRNA [1]; [11]) | IC50 (MYB mRNA [1]; [12]) | IC50 (MYB mRNA [5]; [15])
1 to 10 µM: GI50 [2]
> 10 µM: AC50 (HTT mRNA [3]; [13]) | IC50 (HTT mRNA [3]; [14]) | IC50 (HTT mRNA [4]; [15])

Cc1cn2cc(NC(=O)c3ccc(N4CCC(N)CC4)c4cn(C)nc34)c(F)c2c(C)n1 [Compound 580, 4-(4-amino-1-piperidyl)-N-(8-fluoro-1,3-dimethyl-pyrrolo[1,2-a]-pyrazin-7-yl)-2-methyl-indazole-7-carboxamide]
0.1 to 1 µM: GI50 [2]
> 10 µM: AC50 (HTT mRNA [3]; [8]) | IC50 (HTT mRNA [3]; [9]) | IC50 (HTT mRNA [4]; [10])
1 to 10 µM: AC50 (MYB mRNA [1]; [6]) | IC50 (MYB mRNA [1]; [7]) | IC50 (MYB mRNA [5]; [10])

C=CCNC1CCN(c2ccc(C(=O)Nc3cn4cc(C)nc(C)c4c3OC)c3nn(C)cc23)CC1 [Compound 458, 4-[4-(allylamino)-1-piperidyl]-N-(8-methoxy-1,3-dimethyl-pyrrolo[1,2-a]pyrazin-7-yl)-2-methyl-indazole-7-carboxamide]
1 to 10 µM: AC50 (MYB mRNA [1]; [6]) | IC50 (MYB mRNA [1]; [7]) | GI50 [2] | AC50 (HTT mRNA [3]; [8]) | IC50 (HTT mRNA [3]; [9]) | IC50 (HTT mRNA [4]; [10]) | IC50 (MYB mRNA [5]; [10])

COc1cc2nn(C)cc2cc1NC(=O)c1ccc(N2CCC(NC3CC3)CC2)n2cc(C)nc12 [Compound 618, 5-[4-(cyclopropylamino)-1-piperidyl]-N-(6-methoxy-2-methyl-indazol-5-yl)-2-methyl-imidazo[1,2-a]-pyridine-8-carboxamide]
0.1 to 1 µM: IC50 (MYB mRNA [1]; [12]) | IC50 (MYB mRNA [5]; [15])
1 to 10 µM: GI50 [2] | AC50 (HTT mRNA [3]; [13]) | IC50 (HTT mRNA [3]; [14]) | IC50 (HTT mRNA [4]; [15])
< 0.1 µM: AC50 (MYB mRNA [1]; [11])

CC(=O)NCc1nc(C)cn2cc(NC(=O)c3c(F)cc(N4CCC(NC5CC5)CC4)c4cn(C)nc34)nc12 [Compound 400, N-(8-(acetamido-methyl)-6-methylimidazo [1,2-a]-pyrazin-2-yl)-4-(4-(cyclopropylamino)-piper-idin-1-yl)-6-fluoro-2-meth-yl-2H-indazole-7-carbox-amide 2,2,2-trifluoro-acetate]
> 10 µM: GI50 [2] | AC50 (HTT mRNA [3]; [8]) | IC50 (HTT mRNA [3]; [9]) | IC50 (HTT mRNA [4]; [10])
1 to 10 µM: AC50 (MYB mRNA [1]; [6]) | IC50 (MYB mRNA [1]; [7]) | IC50 (MYB mRNA [5]; [10])

COc1cc2nn(C)cc2cc1NC(=O)c1c(F)cc(N2CCC(NC3CC3)CC2)c2cc(C)nn12 [Compound 624, 4-[4-(cyclopropylamino)-1-piperidyl]-6-fluoro-N-(6-methoxy-2-methyl-indazol-5-yl)-2-methyl-pyrazolo[1,5-a]pyridine-7-carboxamide]
> 10 µM: AC50 (MYB mRNA [1]; [11]) | IC50 (MYB mRNA [1]; [12]) | GI50 [2] | AC50 (HTT mRNA [3]; [13]) | IC50 (HTT mRNA [3]; [14]) | IC50 (HTT mRNA [4]; [15]) | IC50 (MYB mRNA [5]; [15])

Cc1cn2cc(NC(=O)c3ccc(N4CCC(NC5CC5)CC4)c4cn(C)nc34)nc2c(CNS(=O)(=O)CCO)n1 [Compound 752, 4-[4-(cyclopropylamino)-1-piperidyl]-N-[8-[(2-hydroxyethylsulfonylamino)methyl]-6-methyl-imidazo[1,2-a]pyrazin-2-yl]-2-methyl-indazole-7-carboxamide]
> 10 µM: AC50 (MYB mRNA [1]; [11]) | IC50 (MYB mRNA [1]; [12]) | GI50 [2] | AC50 (HTT mRNA [3]; [13]) | IC50 (HTT mRNA [3]; [14]) | IC50 (HTT mRNA [4]; [15]) | IC50 (MYB mRNA [5]; [15])

CCNC1CCN(c2ccc(C(=O)Nc3cc(Oc4ccc(C)cc4)c4nc(C)cn4c3)c3nn(C)cc23)CC1 [Compound 328, 4-(4-(ethylamino)-piperidin-1-yl)-2-methyl-N-(2-methyl-8-(p-tolyloxy)-imidazo[1,2-a]pyridin-6-yl)-2H-indazole-7-carboxamide 2,2,2-trifluoroacetate]
< 0.1 µM: AC50 (MYB mRNA [1]; [6]) | IC50 (MYB mRNA [1]; [7]) | IC50 (MYB mRNA [5]; [10])
0.1 to 1 µM: GI50 [2] | AC50 (HTT mRNA [3]; [8]) | IC50 (HTT mRNA [3]; [9]) | IC50 (HTT mRNA [4]; [10])
